Experimental data from patent US12486266B2, “Crystalline form of JAK inhibitor and application thereof” (Zhuhai United Laboratories CO., LTD., priority 2020, dated 2025).
Where two headings read alike, the source gives them in different places. Marks after values point to notes of the source that are not given here.

How the values were obtained:
[1] = test system: collagen induced arthritis (CIA) in mice; conditions: for Average clinical score / Incidence rate: dosing from day 28
[2] = test system: adjuvant induced arthritis (AIA) rat model
[3] = day 31, 0.3 mg/kg p.o. qd, listed as Dex.
[4] = day 13, 0.3 mg/kg p.o. qd from day 13
[5] = day 15, 0.3 mg/kg p.o. qd from day 13
[6] = day 17, 0.3 mg/kg p.o. qd from day 13
[7] = day 20, 0.3 mg/kg p.o. qd from day 13
[8] = day 22, 0.3 mg/kg p.o. qd from day 13
[9] = day 24, 0.3 mg/kg p.o. qd from day 13
[10] = day 27, 0.3 mg/kg p.o. qd from day 13
[11] = day 27, 0.3 mg/kg p.o. qd from day 13, listed as Dexamethasone acetate
[12] = right hind foot, day 27, 0.3 mg/kg p.o. qd
[13] = day 15, 30 mg/kg p.o. bid from day 13
[14] = day 17, 30 mg/kg p.o. bid from day 13
[15] = day 20, 30 mg/kg p.o. bid from day 13
[16] = day 22, 30 mg/kg p.o. bid from day 13
[17] = day 24, 30 mg/kg p.o. bid from day 13

C[C@@H]1C[C@H]2[C@@H]3CCC4=CC(=O)C=C[C@]4(C)[C@@]3(F)[C@@H](O)C[C@]2(C)[C@@]1(O)C(=O)CO [Dexamethasone]
Inhibition rate (clinical score AUC vs control group) ([1]; 0.3 mg/kg p.o. qd 14 days): 97.3% | Inhibition rate (clinical score AUC vs control group) ([1]; 0.3 mg/kg p.o. qd 14 days, listed as Dex.): 97.3% | AUC ± SEM (area under incidence/clinical score curve) ([1]; administration period, 0.3 mg/kg p.o. qd 14 days): 1.38 ± 0.81 | Average clinical score ([1]; day 21, 0.3 mg/kg p.o. qd): 0.00 ± 0.00 | Incidence rate ([1]; day 21, 0.3 mg/kg p.o. qd): 0% | Average clinical score ([1]; day 24, 0.3 mg/kg p.o. qd): 0.00 ± 0.00 | Incidence rate ([1]; day 24, 0.3 mg/kg p.o. qd): 0% | Average clinical score ([1]; day 27, 0.3 mg/kg p.o. qd): about 0.3 | Incidence rate ([1]; day 27, 0.3 mg/kg p.o. qd): 25% | Average clinical score ([1]; day 27, 0.3 mg/kg p.o. qd, listed as Dex.): 0.25 ± 0.16 | Average clinical score ([1]; day 28, 0.3 mg/kg p.o. qd): 0.50 ± 0.27 | Incidence rate ([1]; day 28, 0.3 mg/kg p.o. qd): 38% | Average clinical score ([1]; day 29, 0.3 mg/kg p.o. qd): 0.25 ± 0.16 | Incidence rate ([1]; day 29, 0.3 mg/kg p.o. qd): 25% | Average clinical score ([1]; day 31, 0.3 mg/kg p.o. qd): 0 | Incidence rate ([1]; day 31, 0.3 mg/kg p.o. qd): 0% | Average clinical score [1, 3]: 0.00 ± 0.00 | Incidence rate [1, 3]: 0% | Average clinical score ([1]; day 34, 0.3 mg/kg p.o. qd): 0.00 ± 0.00 | Incidence rate ([1]; day 34, 0.3 mg/kg p.o. qd): 0% | Average clinical score ([1]; day 36, 0.3 mg/kg p.o. qd): 0.00 ± 0.00 | Incidence rate ([1]; day 36, 0.3 mg/kg p.o. qd): 0% | Average clinical score ([1]; day 38, 0.3 mg/kg p.o. qd): 0.00 ± 0.00 | Incidence rate ([1]; day 38, 0.3 mg/kg p.o. qd): 0% | Average clinical score ([1]; day 41, 0.3 mg/kg p.o. qd): 0.00 ± 0.00 | Incidence rate ([1]; day 41, 0.3 mg/kg p.o. qd): 0% | Inhibition rate (total pathological score vs solvent control) ([2]; 0.3 mg/kg p.o. qd): 72.5% | Clinical score (mean) [2, 4]: 6.0 | Foot volume (mean) [2, 4]: 1.9 mL | Clinical score (mean) [2, 5]: 5.3* | Foot volume (mean) [2, 5]: 1.7**** mL | Clinical score (mean) [2, 6]: 4.1**** | Foot volume (mean) [2, 6]: 1.4**** mL | Clinical score (mean) [2, 7]: 3.4**** | Foot volume (mean) [2, 7]: 1.3**** mL | Clinical score (mean) [2, 8]: 3.1**** | Foot volume (mean) [2, 8]: 1.3**** mL | Clinical score (mean) [2, 9]: 3.1**** | Foot volume (mean) [2, 9]: 1.2**** mL | Clinical score (mean) [2, 10]: 2.7 | Foot volume (mean) [2, 10]: 1.21 mL | Clinical score (mean) [2, 11]: 2.9**** | Foot volume (mean) [2, 11]: 1.2**** mL | Pathological score: Bone resorption [2, 12]: 0.6 ± 0.2 | Pathological score: Cartilage injury [2, 12]: 0.6 ± 0.2 | Pathological score: Inflammatory cell infiltration [2, 12]: 1.8 ± 0.2 | Pathological score: Pannus formation [2, 12]: 1.4 ± 0.3 | Pathological score: Total score [2, 12]: 4.4±0.8 | Pathological score: Total score ([2]; right hind foot, day 27, 0.3 mg/kg p.o. qd, listed as Dexamethasone acetate): 4.4 ± 0.8

O=C(Nc1nc2cccc(-c3ccc(CN4CCS(=O)(=O)CC4)cc3)n2n1)C1CC1 [Filgotinib]
Incidence rate ([1]; day 21, 15 mg/kg p.o. bid): 0% | Incidence rate ([1]; day 24, 15 mg/kg p.o. bid): 0% | Incidence rate ([1]; day 27, 15 mg/kg p.o. bid): 25% | Incidence rate ([1]; day 29, 15 mg/kg p.o. bid): 50% | Incidence rate ([1]; day 31, 15 mg/kg p.o. bid): 75% | Incidence rate ([1]; day 34, 15 mg/kg p.o. bid): 88% | Incidence rate ([1]; day 36, 15 mg/kg p.o. bid): 88% | Incidence rate ([1]; day 38, 15 mg/kg p.o. bid): 88% | Incidence rate ([1]; day 41, 15 mg/kg p.o. bid): 100% | Clinical score (mean) [2, 13]: 6.6 | Foot volume (mean) [2, 13]: 2.2 mL | Clinical score (mean) [2, 14]: 6.3 | Foot volume (mean) [2, 14]: 2.0** mL | Clinical score (mean) [2, 15]: 5.8** | Foot volume (mean) [2, 15]: 1.9**** mL | Clinical score (mean) [2, 16]: 5.5*** | Foot volume (mean) [2, 16]: 2.0**** mL | Clinical score (mean) [2, 17]: 5.4**** | Foot volume (mean) [2, 17]: 2.0**** mL | Foot volume (mean) ([2]; day 27, 30 mg/kg p.o. bid from day 13): 1.9**** mL | Pathological score: Bone resorption ([2]; right hind foot, day 27, 30 mg/kg p.o. bid): 3.6 ± 0.2
